In ChEMBL document CHEMBL1275330, “Rational design, synthesis, and evaluation of new selective inhibitors of microbial class II (zinc dependent) fructose bis-phosphate aldolases” (J Med Chem, 2010) one finds Ratio data, which are given here for three molecules.

What all share (type): tissue-based
Holding throughout (details): Muscle tissue

Assay [1] in a line: Selectivity ratio of Km/ki for rabbit muscle […] Fba to Km/ki for Candida albicans zinc dependent class 2 Fba.
The nature of assay [2]: Selectivity ratio of Km/ki for rabbit muscle […] Fba to Km/ki for Mycobacterium tuberculosis zinc dependent class 2 Fba.
Assay [3] is described as follows: Selectivity ratio of Km/ki for rabbit muscle […] Fba to Km/ki for Helicobacter pylori recombinant zinc dependent class 2 Fba.

With `CCCCCCCCCCCC(=O)OCCCCN(O)C(=O)COP(=O)(O)O`, the values for the Ratio in assay [1], in assay [2] and in assay [3] were 475, 305 and 19, respectively.

`O=C(COP(=O)(O)O)N(O)CCCOP(=O)(O)O`: the Ratio was 7500 in assay [1], 28000 in assay [2] and 23000 in assay [3].

In the case of `O=C(COP(=O)(O)O)N(O)CCCO`, the Ratio in assay [1] is 34000; in assay [2], 20000; in assay [3], 600.
